Results taken from patent US6664241B2, “Water-soluble amide derivatives of polyene macrolides and preparation and uses thereof” (Micrologix Biotech Inc., priority 2000, dated 2003).
Where two headings read alike, the source gives them in different places.

Experiments:
[1] = Maximum non-lethal dose (NLD), single intravenous dose in mice; assay type: in vivo, Swiss-Webster male mice; conditions: test compounds as aspartate salts in 5% mannitol, AmB as FUNGIZONE
Procedure, shortened: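 Groups of four male Swiss-Webster mice received one intravenous dose of aspartate salt in 5% mannitol/water, freshly prepared. Doses were raised or lowered after each round until the maximum non-lethal dose was found.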

[2] = Two week range-finding toxicity study in mice; assay type: in vivo, CD-1 mice; conditions: both sexes, CD-1, mouse, in vivo, iv, intravenous once daily on days 1 to 5 and 8 to 12
Procedure: A variety of the compounds synthesized as described in Section 5, supra, were tested in various in vivo assays, as described below. The results of the various assays are provided in TABLE 3, presented at the end of this section. In all of the in vivo assays described, the test compounds, in the form of the aspartate salts, were formulated in an aqueous vehicle (5% mannitol in sterile water; OSMITROL, Baxter Healthcare, Deerfield, Ill.), followed by appropriate dilutions. The formulations were prepared fresh before dosing.
AmB and AME were also tested for comparison. For AmB, the commercially available FUNGIZONE (Bristol-Meyers Squibb Co.) was used. Reported values are based upon the weight of the AmB active ingredient, not on the basis of the weight of the FUNGIZONE powder. AME was formulated in OSMITROL as described for the test compounds.
Various polyene macrolide amide derivatives of the invention were evaluated to characterize their potential toxicity when administered subchronically by intravenous injection.
CD-1® mice (Charles River Laboratories, Portage, Mich.) were acclimated to laboratory conditions for at least 5 days before the start of dosing. During the acclimation period, the general condition of the mice was evaluated, and those considered healthy were used. The mice were randomly assigned to treatment groups using a stratified body weight regimen. Each treatment group consisted of 3 male and 3 female mice. The mice were housed in a room with a controlled environment and provided rodent chow and water ad libitum.
On the first day of dosing, the mice were approximately 7 to 9 weeks old and weighed 22 to 30 g. Doses were administered by intravenous injection once daily on study days 1 to 5 and 8 to 12. Dosages were selected based upon data from efficacy and toxicology studies, and ranged from 1.25 to 30 mg/kg/day. Clinical observations were recorded 0.5 hr after dosing on days 1, 3, 5, 8, 10, 12 and 15, and on any day a change was observed. Body weights were recorded prior to dosing and on study days 8 and 12, and on study day 15 at the completion of the in-life phase of the study.
Animals that were found in a moribund/deteriorating clinical state were euthanized (animal designated killed in extremis) by inhalation of CO2. The day of death for any animal found dead or killed in extremis was recorded. Any animal that died prematurely was removed from the study without further processing.
One day after completion of dosing (study day 16), all surviving mice were euthanized by inhalation of CO2. Their kidneys were preserved for histopathologic examination. The maximum no-observed-adverse-effect level (NOAEL) was determined on the basis of clinical and histopathologic findings. The values for AmB and AME are provided for comparison.

Q: With `C[C@@H]1[C@H](O)[C@@H](C)/C=C/C=C/C=C/C=C/C=C/C=C/C=C/[C@H](O[C@@H]2O[C@H](C)[C@@H](O)[C@H](N)[C@@H]2O)C[C@@H]2O[C@](O)(C[C@@H](O)C[C@@H](O)[C@H](O)CC[C@@H](O)C[C@@H](O)CC(=O)O[C@H]1C)C[C@H](O)[C@H]2C(=O)O` [AMB, amphotericin B, reference compound] as the compound, how does the NLD acute mice [1] read?
A: 1.5 mg/kg

Q: What about the NOAEL at 2 week ([2]; clinical findings, read-out: NOAEL 2 week mice clinical) of the same compound?
A: 0.5 mg/kg

Q: And the NOAEL at 2 week ([2]; histopathologic (kidney) findings, read-out: NOAEL 2 week mice histological)?
A: 0.85 mg/kg
